Laboratory results from patent publication US9529006B1, “Method for direct detection of lipid binding agents in membrane” (KING SAUD UNIVERSITY, priority 2015, dated 2016).
Where a SMILES comes first, the peptide text is derived from it. [ ]: non-standard residue; d: D form. Phe(ol) = N[C@H](CO)Cc1ccccc1; Aib = CC(C)(N)C(=O)O

How the values were obtained:
[1] = Fluorescence measurements on liposome bound aptamers, liposomes containing PS; type: binding; conditions: liposomes containing 10% PS (DPPC and DPPS 9:1); 6-FAM tagged aptamer
Description: (§1) As defined herein, a liposome is a spherical vesicle having at least one lipid bilayer. The liposome can be used as a vehicle for administration of nutrients and pharmaceutical drugs. Liposomes can be prepared routinely by disrupting biological membranes (such as by sonication). Two different kinds of processes to address membrane effects of all three different classes of MAAs were developed. First, the electrophysiology (EP) trials were performed to record membrane currents across lipid bilayer membranes doped with AMPs (antimicrobial peptides) or CDs (chemotherapy drugs). […] To understand the membrane effect of aptamers, fluorescence (FL) measurements on liposome bound aptamers were performed. […]
(§2) The membrane effects of AMPs were tested using established electrophysiology technique. […] The solution with bound aptamers was then investigated for fluorescence quantification. […]
(§3) The aptamer-lipid binding aspects were addressed by preparing liposomes using known liposome technology. […] The solution with bound aptamers was then investigated for fluorescence quantification.
(§4) Binding affinity and selectivity of designed DNA aptamers were measured. […] The fluorescence (FL) measured in relative fluorescence units (RFU) is plotted against the [DNA] aptamer concentration. […]

[2] = Fluorescence measurements on liposome bound aptamers, liposome containing only PC; type: binding; conditions: liposomes containing no PS
Description: as §1, §2, §3, §4

[3] = Electrophysiology, gA and Alm channel currents in lipid bilayer; conditions: for conductance events in channels in lipid bilayer: gA V=200 mV, Alm V=150 mV
Description: As defined herein, a liposome is a spherical vesicle having at least one lipid bilayer. The liposome can be used as a vehicle for administration of nutrients and pharmaceutical drugs. Liposomes can be prepared routinely by disrupting biological membranes (such as by sonication). Two different kinds of processes to address membrane effects of all three different classes of MAAs were developed. First, the electrophysiology (EP) trials were performed to record membrane currents across lipid bilayer membranes doped with AMPs (antimicrobial peptides) or CDs (chemotherapy drugs). This technique helps to detect the presence of any stable, semi-stable or transient structures that might be induced into the lipid bilayer membrane as a result of MAA-lipid coexistence. To understand the membrane effect of aptamers, fluorescence (FL) measurements on liposome bound aptamers were performed. This method helps to understand the general lipid membrane binding of aptamers.
The membrane effects of AMPs were tested using established electrophysiology technique. Here, gA (gramicidin A) monomer with 15 amino acids was used for constructing gA channels and Alm (alamethicin) monomers were used for constructing Alm channels in a bilayer constructed using lipid 1,2-Dioleoyl-sn-Glycero-3-Phosphocholine. For the membrane effects of CDs, planar lipid bilayers were formed by applying a lipid cocktail of Phosphoethanolamine: phosphatydyleserine: phosphatidylcholine (5:3:2, v/v/v)/n-decane using the painting method over a 150 μm septum of a bilayer cuvette. The aptamer-lipid binding aspects were addressed by preparing liposomes using liposome technology. The liposomes were prepared with 1,2-dipalmitoyl-sn-glycero-3-phosphatidylcholine (DPPC) and 1,2-dipalmitoyl-sn-glycero-3-phospho-L-serine (sodium salt) (DPPS). Buffer with the liposome-bound and unbound aptamers containing 6-carboxyfluorescein (6-FAM) fluorescent tag attached at the 3′ end of the DNA sequence was separated using standard binding assay. The solution with bound aptamers was then investigated for fluorescence quantification. The following examples will further illustrate the direct detection method (DDM).
Membrane currents across lipid bilayer membranes doped with antimicrobial peptides (AMPs) or chemotherapy drugs (CDs) were investigated. The pattern of the general time dependent ion pore conducting current fluctuations is MAA specific. The amplitude and stability of the current events are found to vary due to the differences in the structures of MAAs. Some ion pores conduct currents with constant amplitudes over a period of time considered as pore lifetime. While a few other pores are found to conduct currents with fluctuating amplitudes over their lifetimes.
The gA channel activity was recorded at V=200 mV and Alm at V=150 mV. Here IgA=29±2, 113±5, 243±9 and 386±10 pA respectively are the discrete current levels 0, 1, 2, 3, . . . , etc. in Alm channel. Traces representing gA and Alm channel activities in phospholipid bilayers were recorded at filter frequencies 2 kHz and 20 kHz, respectively. A lower filter frequency for traces representing gA channel activity is alright because of the channel's relatively higher stability. In (B) the point count plots of the current traces through gA and Alm channels peak at discrete values of conductance.
AMP gA is reported to induce conductance events that conducts constant current IgA pA over its lifetime τgA. At the formation and breaking of a gA channel the current undergoes transitions between 0→IgA pA and IgA→0 pA respectively. The current transitions between 0 ? IgA pA happen instantaneously that means current transitions take almost no time. Here, IgA is constant (˜in low range pA) for any gA channel but TO appears with all possible values within a range 0 to a very high value in ms order]. With varied number of amino acids in gA monomer the value of both IgA and τgA vary. Detailed analysis can be found in ref. [2-6]. […]

[4] = Electrophysiology, membrane currents across planar lipid bilayers doped with chemotherapy drugs; conditions: 90 μM, pH=5.7, V=100 mV
Description: The gA channel activity was recorded at V=200 mV and Alm at V=150 mV. […] Traces representing gA and Alm channel activities in phospholipid bilayers were recorded at filter frequencies 2 kHz and 20 kHz, respectively.

SIIAp1: designed DNA aptamer, sequence (5′ → 3′) CAGAAAAAAAC (DNA, backbone and methylation of C not given here; further chemistry not fully specified)
binding of aptamer with liposomes containing PS (fluorescence, RFU vs [DNA]) [1]: selective binding
binding of aptamer with liposome containing only PC (fluorescence) [2]: low non-specific binding

CC(=O)NC(C)(C)C(=O)N1CCC[C@H]1C(=O)NC(C)(C)C(=O)N[C@@H](C)C(=O)NC(C)(C)C(=O)N[C@@H](C)C(=O)N[C@@H](CCC(N)=O)C(=O)NC(C)(C)C(=O)N[C@H](C(=O)NC(C)(C)C(=O)NCC(=O)N[C@@H](CC(C)C)C(=O)NC(C)(C)C(=O)N1CCC[C@H]1C(=O)N[C@H](C(=O)NC(C)(C)C(=O)NC(C)(C)C(=O)N[C@@H](CCC(=O)O)C(=O)N[C@@H](CCC(N)=O)C(=O)N[C@H](CO)Cc1ccccc1)C(C)C)C(C)C [Alm, alamethicin] (Ac-[Aib]P[Aib]A[Aib]AQ[Aib]V[Aib]GL[Aib]PV[Aib][Aib]EQ[Phe(ol)])
discrete current level 0 in Alm channel ([3]; V=150 mV, level 0): 29±2 pA
discrete current level 1 in Alm channel ([3]; V=150 mV, level 1): 113±5 pA
discrete current level 2 in Alm channel ([3]; V=150 mV, level 2): 243±9 pA
discrete current level 3 in Alm channel ([3]; V=150 mV, level 3): 386±10 pA
conductance events in channels in lipid bilayer [3]: rectangular-shape conductance events

COc1c(O[C@@H]2O[C@H](CO)[C@@H](O)[C@H](O)[C@H]2O)cc2c(c1OC)-c1ccc(SC)c(=O)cc1[C@@H](NC(C)=O)CC2 [TCC, thiocolchicoside]
conductance events induced in lipid bilayer [4]: triangular-shaped conductance events

gramicidin A [gA]
conductance events in channels in lipid bilayer [3]: rectangular-shape conductance events

SIIAp2: designed DNA aptamer, sequence (5′ → 3′) CAGAAAAAAAT (DNA, backbone and methylation of C not given here; further chemistry not fully specified)
binding of aptamer with liposomes containing PS (fluorescence, RFU vs [DNA]) [1]: selective binding
